Data from patent publication US9066922B2, “Pharmaceutical composition for the treatment or prevention of diseases involving obesity, diabetes, metabolic syndrome, neuro-degenerative diseases and mitochondria dysfunction diseases” (MD BIOALPHA CO., LTD., priority 2005, dated 2015).

Assays:
AMPK = test: Determination of AMPK activation in C2C12 myoblast cells (SAMS peptide, [γ-32P]ATP); format: cell-based; details: differentiated C2C12 myoblast cells, 5 μg/ml, compared with control (DMSO 0.5% = 1)
Protocol: Myoblast cells, C2C12, were cultured in DMEM containing 10% bovine calf serum. When a cell density reached a range of about 85% to 90%, the culture medium was replaced with a medium containing 1% bovine calf serum to induce differentiation of cells. The thus-differentiated myoblast cells were treated with samples synthesized in Examples 1 through 29 at a concentration of 5 μg/ml, and compared with a control group. Enzymatic activity of AMPK was determined as follows. Firstly, C2C12 cells were lysed to obtain protein extracts and then ammonium sulfate was added to a final concentration of 30%, thereby precipitating proteins. Protein precipitates were dissolved in a buffer (62.5 mM Hepes, pH 7.2, 62.5 mM NaCl, 62.5 mM NaF, 1.25 mM Na pyrophosphate, 1.25 mM EDTA, 1 mM DTT, 0.1 mM PMSF, and 200 μM AMP). Thereafter, 200 μM SAMS peptide (HMRSAMSGLHLVKRR: the underlined serine residue is a phosphorylation site, as an AMPK phosphorylation site of acetyl-CoA carboxylase) and [γ-32P]ATP were added thereto and reactants were reacted for 10 minutes at 30° C. This was followed by spotting of the resulting reaction solution on p81 phosphocellulose paper. The p81 paper was washed with a 3% phosphoric acid solution and radioactivity thereof was measured. For each reaction condition, reactions involving no SAMS peptide were also conducted and basic values were subtracted from the thus-observed values.

Sprague-Dawley rats [1] = test: Acute toxicity test, oral administration; format: in vivo; details: oral, 50, 100 and 200 mg/kg, observed for 2 weeks, vs control group
Sprague-Dawley rats [2] = test: Acute toxicity test, peritoneal administration; format: in vivo; details: peritoneal, 50, 100 and 200 mg/kg, observed for 2 weeks, vs control group
[3] = test system: C57BL/6JL Lep ob/Lep ob mice; test: Weight loss effects in obese mice (ob/ob): body weight; format: in vivo; details: 100 mg/kg for 26 days; for change in vivo at 100 mg/kg: Mus musculus, 624 h, read-out: Increase in BW
Text: (§1) 10-week-old C57BL/6JL Lep ob/Lep ob male mice having obesity characteristics and predisposition were purchased from Daehan Biolink Co., Ltd. (Chungchongbuk-do, Korea). Animals were raised in a breeding room maintained at a temperature of 23 C, 55% humidity, illumination of 300 to 500 lux, a 12-h light/dark (L/D) cycle, and ventilation of 10 to 18 times/hr. Animals were fed ad libitum pellets of Purina Rodent Laboratory Chow 5001 (purchased from Purina Mills Inc., St. Louis, Mo., USA) as a solid feed for experimental animals and tap water as drinking water. Mice were allowed to acclimate to new environment of the breeding room for two weeks and were then administered some pyrano-o-naphthoquinone and furano-o-naphthoquinone derivatives synthesized according to the present invention at doses of 100 mg/kg for 26 days. Observation was made on changes in body weight, blood glucose and dietary intake, with respect to a time course of administration. After administration was complete, Computed Tomography (CT) was performed to confirm changes in adipose tissue distribution of animals, changes in fat distribution of tissues in various organs, changes in sizes of adipocytes, and changes in glucose, lipid and enzyme levels in blood and liver.

[4] = test system: C57BL/6JL Lep ob/Lep ob mice; test: Blood lipid, glucose and enzyme levels in obese mice (ob/ob); format: in vivo; design: unit not given here; details: 100 mg/kg for 26 days
Text: as §1

Compound	AMPK fold (AMPK) [fold]	visually observable symptoms (Sprague-Dawley rats [1])	visually observable symptoms (Sprague-Dawley rats [2])	Final BW [3] [g]	change in vivo at 100 mg/kg [3] [%]	Cholesterol [4]	GOT [4]	GPT [4]	Glucose [4]	Triglyceride [4]
C[C@@H]1C2=C(O[C@@H]1C)c1ccccc1C(=O)C2=O [Compound 17]	2.2	no visually observable symptoms with exception of weight loss	no visually observable symptoms with exception of weight loss	–	–	–	–	–	–	–
O=C1C(=O)c2ccccc2C2=C1CCC1(CCCCC1)O2 [Compound 27]	1.7	–	–	–	–	–	–	–	–	–
CC1(C)CC2=C(O1)c1ccccc1C(=O)C2=O [Compound 4]	2.2	no visually observable symptoms with exception of weight loss	no visually observable symptoms with exception of weight loss	40.0	-27.8	130	48	44	134	148
C=C1OC2=C(C(=O)C(=O)c3ccccc32)C1(C)C [Compound 9]	2.6	–	–	–	–	–	–	–	–	–
C[C@H]1OC2=C(C(=O)C(=O)c3ccccc32)[C@@H]1C [Compound 16]	2.5	no visually observable symptoms with exception of weight loss	no visually observable symptoms with exception of weight loss	–	–	–	–	–	–	–
Cc1ccc2c(c1)C1=C(CCC(C)(C)O1)C(=O)C2=O [Compound 22]	1.9	–	–	48.7	-16.5	132	57	49	142	168
COC1(C)OC2=C(C(=O)C(=O)c3ccccc32)C1(C)C (centres unmarked) [Compound 10]	1.6	–	–	–	–	–	–	–	–	–
Cc1ccc2c(c1)C(=O)C(=O)c1c(C)coc1-2 [Compound 31]	1.2	–	–	–	–	–	–	–	–	–
CCC1CC2=C(O1)c1ccccc1C(=O)C2=O (centres unmarked) [Compound 19]	2.1	–	–	–	–	–	–	–	–	–
CC1(C)CCC2=C(O1)c1cc(Cl)ccc1C(=O)C2=O [Compound 21]	2.2	–	–	41.1	-28.3	127	46	39	127	138
CC1CC2=C(O1)c1ccccc1C(=O)C2=O (centres unmarked) [Compound 5]	1.3	–	–	36.1	-39.5	117	38	29	112	137
C=CC1(C)CCC2=C(O1)c1ccccc1C(=O)C2=O (centres unmarked) [Compound 12]	2.1	no visually observable symptoms with exception of weight loss	no visually observable symptoms with exception of weight loss	–	–	–	–	–	–	–
O=C1C(=O)c2ccccc2C2=C1CCC(c1ccccc1)O2 (centres unmarked) [Compound 7]	2.2	–	–	–	–	–	–	–	–	–
Cc1ccc2c(c1)-c1occ(C)c1C(=O)C2=O [Compound 32]	1.3	–	–	–	–	–	–	–	–	–
CC1(C)C=CC2=C(O1)c1ccccc1C(=O)C2=O [Compound 11]	1.3	–	–	–	–	–	–	–	–	–
Cc1cc2c(o1)-c1ccccc1C(=O)C2=O [Compound 29]	1.3	–	–	–	–	–	–	–	–	–
CCC1(C)CCC2=C(O1)c1ccccc1C(=O)C2=O (centres unmarked) [Compound 24]	2.1	no visually observable symptoms with exception of weight loss	no visually observable symptoms with exception of weight loss	–	–	–	–	–	–	–
CC(C)=C/C(C)=C/C1(C)CCC2=C(O1)c1ccccc1C(=O)C2=O (centres unmarked) [Compound 14]	1.5	no visually observable symptoms with exception of weight loss	no visually observable symptoms with exception of weight loss	61.3	-4.7	160	95	87	193	216
CC1C2=C(OC1(C)C)c1ccccc1C(=O)C2=O (centres unmarked) [Compound 3]	3.2	no visually observable symptoms with exception of weight loss	no visually observable symptoms with exception of weight loss	39.7	-27.9	128	36	32	122	129
CC1OC2=C(C(=O)C(=O)c3ccccc32)C1(C)C (centres unmarked) [Compound 2, Dunnione]	1.4	no visually observable symptoms with exception of weight loss	no visually observable symptoms with exception of weight loss	28.7	-46.2	123	50	43	125	154
CC1(c2ccccc2)CCC2=C(O1)c1ccccc1C(=O)C2=O (centres unmarked) [Compound 26]	2.2	no visually observable symptoms with exception of weight loss	no visually observable symptoms with exception of weight loss	42.3	-25.5	128	40	33	131	137
CC1(C)CCCC2(C)OC3=C(CC12)C(=O)C(=O)c1ccccc13 (centres unmarked) [Compound 20]	2.3	–	–	–	–	–	–	–	–	–
Cc1coc2c1C(=O)C(=O)c1ccccc1-2 [Compound 30]	1.2	–	–	–	–	–	–	–	–	–
O=C1C(=O)c2ccccc2C2=C1CCC1(CCCC1)O2 [Compound 28]	1.7	–	–	–	–	–	–	–	–	–
CCC1(CC)CCC2=C(O1)c1ccccc1C(=O)C2=O [Compound 25]	1.8	no visually observable symptoms with exception of weight loss	no visually observable symptoms with exception of weight loss	–	–	–	–	–	–	–
CC1OC2=C(C(=O)C(=O)c3ccccc32)C1c1ccccc1 (centres unmarked) [Compound 8]	1.9	–	–	–	–	–	–	–	–	–
CC(C)=CC1(C)CCC2=C(O1)c1ccccc1C(=O)C2=O (centres unmarked) [Compound 13]	2.3	no visually observable symptoms with exception of weight loss	no visually observable symptoms with exception of weight loss	–	–	–	–	–	–	–
CC1CCC2=C(O1)c1ccccc1C(=O)C2=O (centres unmarked) [Compound 18]	2.3	–	–	–	–	–	–	–	–	–
O=C1C(=O)c2ccccc2C2=C1CCO2 [Compound 6]	2.2	–	–	–	–	–	–	–	–	–
